Laboratory results as given in patent US11951169B2, “Pharmaceutical preparation with curcuminoids nanoparticles and a method for producing the same” (AASTAR PTE LTD, priority 2019, dated 2024).

Assay: Dissolution test (USP apparatus Type II paddles) of capsules containing the gel liquid, HPLC analysis
Format: physicochemical
Settings: capsule
Method: An Agilent 1260 Infinity HPLC system consists of a G1330B thermostat, a G1329B auto-injector, a G13150 diode array detector, a G1322A degasser and a high-pressure binary pump. Signal/Noise ratio of the chromatogram generated from this HPLC was used for qualitative and quantitative analyses in this study. The column used was an Angilent Poroshell 120 EC-C18 ([…], 2.7 am). The HPLC was run for 10 minutes at a column temperature of 35° C. under a flow rate of 0.3 ml/min with injection volume being 5 μl. The detection spectrum was set at 426 nm using an elusion medium comprising acetonitrile and 0.1% of aqueous formic acid in a volume ratio of 1:2.
2.0 g of NaCl and 7 ml of HCl were dissolved in 1 L of ultrapure water. The pH was adjusted to 1.2, by using 2M NaOH. 13.121 g of Na2HPO4 were dissolved in 1 L of ultrapure water. The pH was adjusted to 6.8.
A Vankel Varain VK 70000 Dissolution System consisting of VK7000 dissolution system, VK 750D heating circulator, system monitor, 6 Vankel vessels and apparatus Type II paddles, was used in the preparation of a dissolution sample from capsules containing the gel liquid.
The dissolution test was performed in compliance with United States Pharmacopoeia using apparatus Type II paddles. […] 6 capsules were added into 6 vessels respectively. […] 2 μl of the filtrate was injected into the HPLC system for analysis.
Further, 250 ml of pH 6.8 solution was added to the same vessel at 45 minutes and the pH was adjusted to 6.8 using 2M NaOH within 5 minutes. 1-2 ml of the dissolution sample was then collected after 60 minutes, 75 minutes and 120 minutes followed by filtering through a 0.45 μm membrane immediately. 2 μl of the filtrate was injected into the HPLC system for analysis.

| Structure (SMILES) | Weight dissolved (pH 1.2, 15 min) | Weight dissolved (pH 1.2, 30 min) | Weight dissolved (pH 6.8, 45 min) | Weight dissolved (pH 6.8, 60 min) | Weight dissolved (pH 6.8, 75 min) | Weight dissolved (pH 6.8, 120 min) | Weight dissolved (pH 1.2, 10 min) |
| --- | --- | --- | --- | --- | --- | --- | --- |
| COc1cc(/C=C/C(=O)CC(=O)/C=C/c2ccc(O)cc2)ccc1O [DMC, demthoxycurcumin] | 195 ± 22 µg | 831 ± 87 µg | 745 ± 48 µg | 747 ± 45 µg | 739 ± 68 µg | 763 ± 69 µg |  |
| COc1cc(/C=C/C(=O)CC(=O)/C=C/c2ccc(O)c(OC)c2)ccc1O [Curcumin, curcumin] | 4250 ± 686 µg | 18908 ± 1819 µg | 24155 ± 1397 µg | 23746 ± 1347 µg | 23497 ± 1859 µg | 23937 ± 1826 µg | 590 ± 78 µg |
